Assay: Transmembrane screen (TS) for membrane affinity: drug solution added to membrane lipid Test system in 96 well plate, turbidity assessed visually or at 690 nm
Type: physicochemical
Details: higher turbidity with VP 805 than VP200 at 10:1 or lower lipid to drug ratios

relative affinity for VP 200 versus VP 805 (turbidity): higher affinity for VP 200 than VP 805
Compound: Clc1ccccc1C(c1ccccc1)(c1ccccc1)n1ccnc1 [Clotrimazole]

Reference: patent publication EP1410020B1, “TEST SYSTEM AND METHOD SUITABLE FOR SELECTING TEST MATERIALS AND FORMULATIONS” (PHARES PHARMACEUTICAL RESEARCH N.V., priority 2001, dated 2003)
